Measurements: US9078907B2, “Immunoregulator compounds” (Universita Degli Studi Di Roma “Tor Vergata”, priority 2001, dated 2015)

Legend:
Mycobacterium smegmatis = assay: Colony forming units of M. smegmatis in differentiated THP-1 cells; assay type: cell-based; conditions: THP-1, M. smegmatis, S1P 5 μM; ethanol 0.3%, 0.03%, 0.003% (dose dependent) or calphostin C 10 nM
Procedure: Human monocytic THP-1 leukemia line cells were used in this example as a model for macrophage response. In order to obtain macrophage phenotype, 5×10^5/ml THP-1 cells were induced to differentiate by 48 hours incubation in the presence of 20 ng/ml Phorbol Myristate Acetate (PMA). Differentiated THP-1 cells (dTHP-1) were then centrifuged three times and suspended in complete medium [RPMI 1640 (Gibco BRL) supplemented with 10% fetal bovine serum (Gibco BRL), 5 mM L-glutamine (Invitrogen), 1 mM sodium pyruvate (Gibco BRL) and non-essential amino acids (Euroclone)]. dTHP-1 were then infected for 3 hours with M. smegmatis at the multiplicity of infection of bacterium/cell 50:1. Following infection cells were washed three times with RPMI 1640 and incubated in complete medium at 37° C. for further 1, 12 and 24 hours in the presence or absence of sphingosine-1 phosphate used at the concentration of 5 μM.
In order to assess the role of macrophage PLD activity in sphingosine 1-phosphate induced mycobacterial growth control, following the infection the cells were cultured in the presence of various concentrations of ethanol (0.3%, 0.03%, 0.003%) or 10 nM calphostin C. […] Inhibiting activity of calphostin C is exploited by targeting PLD catalytic domain (Sciorra V. A., Hammond S. M., Morris A. J. Potent direct inhibition of mammalian phospholipase D isoenzymes by calphostin c. Biochemistry 2001; 40: 2640-46). Just after the infection and at the indicated time points, cells were 1) lysed using cold PBS containing 0.1% saponin (Sigma, MA, USA), ii) serially diluted in PBS containing 0.01% Tween-80 (Merck, Darmstadt, Germany) and iii) plated in triplicate in Middlebrook 7H10 medium (Becton Dickinson, MD, USA) supplemented with 10% OADC formulation (0.5 mg/ml oleic acid, 50 mg/ml albumin, 20 mg/ml dextrose, 0.04 mg/ml catalase and 8.5 mg/ml sodium chloride). M. smegmatis colonies were enumerated after incubation for 3 days at 37° C.

macrophage PLD = assay type: cell-based, human
macrophages = assay: ROI generation by dichlorofluorescein (DCF) flow cytometry; assay type: cell-based, human; conditions: lipopolysaccharide stimulated cells, positive control
Procedure: Because dichloro fluorescein (DCF) is a fluorochrome obtained from reaction of non fluorescent 2, 7-dichloro fluorescein diacetate (DCFH) with various oxidants, analysis thereof is used to detect cellular oxidative stress and amount of oxygen reactive intermediates (ROI) produced by phagocytic cells. In the used model, this analysis is employed in order to monitor the D-erythro-sphingosine 1-phosphate (S1P) modulated ROI production from macrophages. Macrophages were incubated for 90 minutes with sphingosine 1-phosphate at 0.5 μM, 5 μM, 10 μM and 50 μM concentrations. After the incubation 100 μl of 0.4 μM DCFH (Calbiochem) were added and incubated for at least 30 minutes. Finally, cells were washed with PBS and analysed using FACScan flow cytometer from Becton Dickinson.

## calphostin C
Mycobacterium smegmatis
  mycobacterial replication after PLD inhibitor treatment of S1P treated cells: increase

## IFN-γ
Macrophage PLD
  effect of IFN-γ pre-treatment on PLD activity of infected macrophages: does not modify
  effect of IFN-γ treatment before and/or after infection on levels of macrophage PLD activity: does not appear to modify

## lipopolysaccharides [reference compound]
macrophages
  DCF positive cells after stimulation: increase

## CCO [ethanol]
Mycobacterium smegmatis
  mycobacterial replication after PLD inhibitor treatment of S1P treated cells: increase
